Measurements: patent US10633339B2, “Tricyclic sulfone compound as a ROR gamma modulator” (BRISTOL-MYERS SQUIBB COMPANY, priority 2018, dated 2020)

How the values were obtained:
[1] = Glutathione conjugate formation in human liver cytosol incubations; type: in vitro ADME; settings: 10 μM compound, 5 mM GSH, 37° C., 60 min; UV peak area relative to parent at 260-280 nm; n=2
Description: (§1) Assay for Glutathione Conjugate formation in Rat or Human Cytosol Incubations Compound A and Compound 1 were incubated at a concentration of 10 μM with rat or human liver cytosol (3-5 mg/mL) (male Sprague-Dawley rat liver cytosol, lot BIM, n=100 purchased from Bioreclamation IVT, or mixed gender pool, lot 452115, n=150 purchased from Corning) in 1 mL of potassium phosphate buffer (50 mM, pH 8.5). The reactions (n=2, total volume=1000 μL) were initiated by the addition of glutathione (GSH) (5 mM) and incubated at 37° C. in a thermomixer. At 0 and 60 min, aliquots (100 μL) of the reaction mixtures were collected, and reactions were terminated by adding two volumes of acetonitrile. Proteins were then removed using a Millipore Sigma (Massachusetts, BA) Multiscreen Solvinert filter plate, by centrifugation (Eppendorf 5810 R, Hamburg, Germany) at 2000 rpm for 5 min. The filtrate was collected in a 96-well plate and was analyzed by high resolution Velos LTQ-Orbitrap (LC-UV/MS) system. UV absorbance was collected from 220-600 nm. […] The degrees of formation of GSH conjugates from the two compounds is shown below. Entries represent UV peak areas calculated relative to the parent compound at 260-280 nm. Data in parentheses represent the averages of the two experiments.

[2] = Glutathione conjugate formation in rat liver cytosol incubations; type: in vitro ADME
Description: as §1

Q: With `C[C@H]1C[C@H](C(=O)O)CC[C@H]1C(=O)N1CC[C@@]2(S(=O)(=O)c3ccccc3)c3cc(F)c(C(F)(C(F)(F)F)C(F)(F)F)cc3CC[C@@H]12` [Compound 1, (1R,3S,4R)-4-((3aR,9bR)-8-fluoro-7-(perfluoropropan-2-yl)-9b-(phenylsulfonyl)-2,3,3a,4,5,9b-hexahydro-1H-benzo[e]indole-3-carbonyl)-3-methylcyclohexane-1-carboxylic acid] as the compound, how does the “GSH conjugate, Human Cytosol UV Area (%), individual experiments” value [1] read?
A: not detected

Q: And the “GSH conjugate, Rat Cytosol UV Area (%), individual experiments” value ([2]; 10 μM compound, 5 mM GSH, 37° C., 60 min, UV peak area relative to parent at 260-280 nm, n=2)?
A: not detected

Q: What about the “GSH adduct formation (statement in words)” value ([2]; based on in vitro experiments (rat or human cytosol, not given)) of the same compound?
A: did not form a GSH adduct
